Results as given in PMC3091653, “A new family of phosphoinositide phosphatases in microorganisms: identification and biochemical analysis” (BMC Genomics, 2010).

Target: T1, LM1 (Leishmania major, UniProt Q4QBX1)
T1 construct: gene LMJF_22_0250; pET14, His6-tagged (kept), frame shift of original clone removed by mutagenesis; E. coli BL21 (DE3)
Test: malachite green phosphate release
Assay type: biochemical
Settings: pH 6, 37°C, 100-125 μM substrate

T1 sequence (Q4QBX1 entry or part of it): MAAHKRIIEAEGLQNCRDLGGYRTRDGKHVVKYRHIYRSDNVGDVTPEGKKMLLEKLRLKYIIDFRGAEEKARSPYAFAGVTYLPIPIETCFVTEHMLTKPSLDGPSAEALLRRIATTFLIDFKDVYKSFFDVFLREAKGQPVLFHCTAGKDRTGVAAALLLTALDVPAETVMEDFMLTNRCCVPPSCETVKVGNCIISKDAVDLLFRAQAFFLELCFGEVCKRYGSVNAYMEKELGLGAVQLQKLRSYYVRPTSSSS

SMILES: CCCCCCCC(=O)OC[C@H](COP(=O)(O)O[C@@H]1[C@H](O)[C@H](OP(=O)(O)O)[C@@H](O)[C@H](O)[C@H]1O)OC(=O)CCCCCCC [diC8-PI(3)P]
- malachite green phosphate release: Both Lmo1935 and LM1 show also activity towards mono-phosphorylated PIs
